PubChem BioAssay (NCI)
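All cell lines were grown in 96-well plates and treated with compound for 48 hours. TGI: concentration producing complete growth inhibition.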

Key:
Assay in all cases: growth of human tumour cells (NCI), 48 h
[1] = test system: SK-OV-3 ovarian
[2] = test system: SNB-75 CNS
[3] = test system: NCI-H460 lung
[4] = test system: U251 CNS
[5] = test system: HCT-15 colon
[6] = test system: LOX IMVI melanoma
[7] = test system: KM12 colon
[8] = test system: SF-295 CNS
[9] = test system: SW-620 colon
[10] = test system: DU-145 prostate
[11] = test system: A498 renal
[12] = test system: NCI-H226 lung
[13] = test system: CAKI-1 renal
[14] = test system: COLO 205 colon
[15] = test system: SN12C renal
[16] = test system: NCI/ADR-RES ovarian
[17] = test system: PC-3 prostate
[18] = test system: UACC-257 melanoma
[19] = test system: HCT-116 colon
[20] = test system: EKVX NSCLC
[21] = test system: SF-539 CNS
[22] = test system: MDA-N
[23] = test system: MALME-3M melanoma
[24] = test system: HCC-2998 colon
[25] = test system: SK-MEL-28 melanoma
[26] = test system: 786-0 renal
[27] = test system: UACC-62 melanoma
[28] = test system: OVCAR-3 ovarian
[29] = test system: SK-MEL-5 melanoma
[30] = test system: TK-10 renal
[31] = test system: IGROV1 ovarian
[32] = test system: SR leukemia
[33] = test system: OVCAR-4 ovarian
[34] = test system: NCI-H23 lung
[35] = test system: MCF7 breast
[36] = test system: ACHN renal
[37] = test system: MDA-MB-435
[38] = test system: RPMI-8226 leukemia
[39] = test system: HOP-92 NSCLC
[40] = test system: SNB-19 CNS
[41] = test system: MDA-MB-231 breast
[42] = test system: M14 melanoma
[43] = test system: A549 NSCLC
[44] = test system: UO-31 renal
[45] = test system: OVCAR-5 ovarian
[46] = test system: NCI-H522 lung
[47] = test system: CCRF-CEM leukemia
[48] = test system: SK-MEL-2 melanoma
[49] = test system: MOLT-4 leukemia
[50] = test system: HL-60(TB) leukemia
[51] = test system: RXF 393 renal
[52] = test system: OVCAR-8 ovarian
[53] = test system: BT-549 breast
[54] = test system: HOP-62 NSCLC
[55] = test system: SF-268 CNS
[56] = test system: T-47D breast
[57] = test system: HT29 colon

## CC(C)(C)OC(=O)[C@H]1CCC(=S)N1Cc1ccccc1
[1]
  TGI: > 100 µM
[2]
  TGI: > 100 µM
[3]
  TGI: > 100 µM
[4]
  TGI: > 100 µM
[5]
  TGI: > 100 µM
[6]
  TGI: > 100 µM
[7]
  TGI: > 100 µM
[8]
  TGI: > 100 µM
[9]
  TGI: > 100 µM
[10]
  TGI: > 100 µM
[11]
  TGI: > 100 µM
[12]
  TGI: > 100 µM
[13]
  TGI: > 100 µM
[14]
  TGI: > 100 µM
[15]
  TGI: > 100 µM
[16]
  TGI: > 100 µM
[17]
  TGI: > 100 µM
[18]
  TGI: > 100 µM
[19]
  TGI: > 100 µM
[20]
  TGI: > 100 µM
[21]
  TGI: > 100 µM
[22]
  TGI: > 100 µM
[23]
  TGI: > 100 µM
[24]
  TGI: > 100 µM
[25]
  TGI: > 100 µM
[26]
  TGI: > 100 µM
[27]
  TGI: > 100 µM
[28]
  TGI: > 100 µM
[29]
  TGI: > 100 µM
[30]
  TGI: > 100 µM
[31]
  TGI: > 100 µM
[32]
  TGI: > 100 µM
[33]
  TGI: > 100 µM
[34]
  TGI: > 100 µM
[35]
  TGI: > 100 µM
[36]
  TGI: > 100 µM
[37]
  TGI: > 100 µM
[38]
  TGI: > 100 µM
[39]
  TGI: > 100 µM
[40]
  TGI: > 100 µM
[41]
  TGI: > 100 µM
[42]
  TGI: > 100 µM
[43]
  TGI: > 100 µM
[44]
  TGI: > 100 µM
[45]
  TGI: > 100 µM
[46]
  TGI: > 100 µM
[47]
  TGI: > 100 µM
[48]
  TGI: > 100 µM
[49]
  TGI: > 100 µM
[50]
  TGI: > 100 µM
[51]
  TGI: > 100 µM
[52]
  TGI: > 100 µM

## CCCCNC(=S)Nc1nc(C(=O)NNC(=S)Nc2ccccc2)cs1
[1]
  TGI: > 100 µM
[2]
  TGI: 91.1 µM
[3]
  TGI: > 100 µM
[4]
  TGI: 48.3 µM
[5]
  TGI: > 100 µM
[7]
  TGI: > 100 µM
[8]
  TGI: > 100 µM
[53]
  TGI: > 100 µM
[9]
  TGI: > 100 µM
[10]
  TGI: > 100 µM
[11]
  TGI: 68 µM
[12]
  TGI: > 100 µM
[13]
  TGI: > 100 µM
[14]
  TGI: > 100 µM
[15]
  TGI: > 100 µM
[16]
  TGI: > 100 µM
[17]
  TGI: > 100 µM
[18]
  TGI: > 100 µM
[54]
  TGI: > 100 µM
[19]
  TGI: > 100 µM
[20]
  TGI: > 100 µM
[21]
  TGI: > 100 µM
[22]
  TGI: > 100 µM
[24]
  TGI: > 100 µM
[26]
  TGI: > 100 µM
[27]
  TGI: > 100 µM
[28]
  TGI: > 100 µM
[29]
  TGI: > 100 µM
[30]
  TGI: > 100 µM
[55]
  TGI: > 100 µM
[33]
  TGI: > 100 µM
[56]
  TGI: > 100 µM
[34]
  TGI: > 100 µM
[35]
  TGI: > 100 µM
[36]
  TGI: > 100 µM
[37]
  TGI: > 100 µM
[38]
  TGI: > 100 µM
[39]
  TGI: 38.6 µM
[40]
  TGI: > 100 µM
[41]
  TGI: 87.2 µM
[42]
  TGI: > 100 µM
[43]
  TGI: > 100 µM
[44]
  TGI: > 100 µM
[45]
  TGI: > 100 µM
[47]
  TGI: > 100 µM
[48]
  TGI: > 100 µM
[57]
  TGI: > 100 µM
[49]
  TGI: > 100 µM
[52]
  TGI: > 100 µM
